Test results: US4175081A, “5-Substituted thiadiazole ureas” (priority 1977, dated 1979)

How the values were obtained:
Johnson grass (JG) [1] = test: Post-emergence herbicide test; type: in vivo, Sorgum helepense; details: Sorghum halepense, 336 h, two weeks after treatment; for pest or weed control: 2 lb/acre; for pest or weed control at 4483.4 g/ha: 4 lb/acre; for pest or weed control at 1120.85 g/ha: 1 lb/acre
Protocol: (§1) Johnson grass (JG)--Sorgum helepense
(§2) All crop and weed species were planted individually in 3' plastic pots containing potting soil. Four seeds each of corn, cotton, and snapbeans were seeded to a depth equal to the diameter of the seed. All other species were surface seeded and sprinkled with screened soil in an amount sufficient to cover the seed. Immediately after planting, all pots were watered by sub-irrigation in greenhouse trays. Pots for the pre-emergence phase were seeded one day before treatment.
(§3) Planting dates for the post-emergence phase were varied so that all seedlings would reach the desired stage of development simultaneously. The proper stage of seedling development for treatment in the post-emergence phase is as follows:
(§4) Compounds were tested at rates of application equivalent to 8 lbs. of actual compound per acre in a spray volume of 38 gallons per acre. Spray hood constants required to deliver the above volume are as follows:
(§5) Formulations for spray applications were prepared in 50 ml volumes with the following three components:
(§6) Formulations for the 4 lbs/acre rate were prepared by adjusting the amount of active ingredient accordingly.
(§7) Spray applications were made in a hood containing a removable belt and fixed spray nozzle. For passage through the spray hood, one pot of each specie (pre-emergence phase) was placed on the rear half of the flat. Treatments were removed to the greenhouse after spraying. Watering during the observation period was done only by sub-irrigation.
(§8) Two weeks after treatment, pre- and post-emergence injury or control was visually rated, and the results were as shown in the following tables. Pre-emergence data are provided in TABLE III and post-emergence data are provided in TABLE IV, for compounds having the formula illustrated in TABLE I. Correspondingly, pre-emergence and post-emergence data, respectively, are set forth in TABLES V AND VI, for compounds having the formula illustrated in TABLE II.

Barnyard grass (BG) [2] = test: Pre-emergence herbicide test; type: in vivo; details: Echinochloa crus-galli, 336 h, two weeks after treatment
Protocol: (§9) Barnyard grass (BG)--Echinochloa crus-galli
as §2, §4, §5, §6, §7, §8

Turnip (TP) [3] = test: Pre-emergence herbicide test; type: in vivo, Brassica sp.; details: Brassica rapa, pre-emergence, 336 h, two weeks after treatment
Protocol: (§10) Turnip (TP)--Brassica sp.
as §2
(§11) Spray hood constants required to deliver the above volume are as follows:
(§12) Formulations for spray applications were prepared in 50 ml volumes with the following three components: […]
as §7, §8

Crabgrass (CG) [4] = test: Pre-emergence herbicide test; type: in vivo, Digitaria sanquinalis; details: Digitaria sanguinalis, pre-emergence, 336 h, two weeks after treatment
Protocol: (§13) Crabgrass (CG)--Digitaria sanquinalis
as §2, §11, §12, §7, §8

Cotton (CT) [5] = test: Post-emergence herbicide test; type: in vivo, Gossypium hirsutum var. DPL smooth leaf; details: Gossypium hirsutum, post-emergence, 336 h, two weeks after treatment; for pest or weed control at 2241.7 g/ha: 2 lb/acre; for pest or weed control at 4483.4 g/ha: 4 lb/acre; for pest or weed control at 1120.85 g/ha: 1 lb/acre
Protocol: (§14) Cotton (CT)--Gossypium hirsutum var. DPL smooth leaf
as §2, §3
Cotton: first true leaf 1' in length; expanded cotyledons.
as §11, §5, §6, §7, §8

Crabgrass (CG) [6] = test: Post-emergence herbicide test; type: in vivo, Digitaria sanquinalis; details: Digitaria sanguinalis, post-emergence, 336 h, two weeks after treatment; for pest or weed control: 2 lb/acre; for pest or weed control at 4483.4 g/ha: 4 lb/acre; for pest or weed control at 1120.85 g/ha: 1 lb/acre
Protocol: as §13, §2, §3, §11, §12, §7, §8

Cotton (CT) [7] = test: Pre-emergence herbicide test; type: in vivo, Gossypium hirsutum var. DPL smooth leaf; details: Gossypium hirsutum, 336 h, two weeks after treatment
Protocol: as §14, §2, §4, §5, §6, §7, §8

Barnyard grass (BG) [8] = test: Post-emergence herbicide test; type: in vivo; details: Echinochloa crus-galli, 336 h, two weeks after treatment; for pest or weed control at 2241.7 g/ha: 2 lb/acre; for pest or weed control at 4483.4 g/ha: 4 lb/acre; for pest or weed control at 1120.85 g/ha: 1 lb/acre
Protocol: as §9, §2, §3, §4, §5, §6, §7, §8

Bean (BN) [9] = test: Pre-emergence herbicide test; type: in vivo, Phaseolus vulgaris var. Black Valentine; details: Phaseolus vulgaris, 336 h, two weeks after treatment
Protocol: (§15) Bean (BN)--Phaseolus vulgaris var. Black Valentine
as §2, §4, §5, §6, §7, §8

Corn (CN) [10] = test: Pre-emergence herbicide test; type: in vivo; details: Zea mays, 336 h, 2 lb/acre, two weeks after treatment
Protocol: as §2, §4, §5, §6, §7, §8

Bean (BN) [11] = test: Post-emergence herbicide test; type: in vivo, Phaseolus vulgaris var. Black Valentine; details: Phaseolus vulgaris, post-emergence, 336 h, two weeks after treatment; for pest or weed control at 2241.7 g/ha: 2 lb/acre; for pest or weed control at 4483.4 g/ha: 4 lb/acre; for pest or weed control at 1120.85 g/ha: 1 lb/acre
Protocol: as §15, §2, §3
Beans: primary leaves expanded, growing point at primary leaf nodes.
as §11, §5, §6, §7, §8

Johnson grass (JG) [12] = test: Pre-emergence herbicide test; type: in vivo, Sorgum helepense; details: Sorghum halepense, 336 h, two weeks after treatment
Protocol: as §1, §2, §4, §5, §6, §7, §8

Corn (CN) [13] = test: Post-emergence herbicide test; type: in vivo; details: Zea mays, 336 h, two weeks after treatment; for pest or weed control: 2 lb/acre; for pest or weed control at 4483.4 g/ha: 4 lb/acre; for pest or weed control at 1120.85 g/ha: 1 lb/acre
Protocol: as §2, §3, §4, §5, §6, §7, §8

Turnip (TP) [14] = test: Post-emergence herbicide test; type: in vivo, Brassica sp.; details: Brassica rapa, post-emergence, 336 h, two weeks after treatment; for pest or weed control at 2241.7 g/ha: 2 lb/acre; for pest or weed control at 4483.4 g/ha: 4 lb/acre; for pest or weed control at 1120.85 g/ha: 1 lb/acre
Protocol: as §10, §2, §3
Pigweed and turnips: 1 or 2 true leaves above visible cotyledons.
as §11, §12, §7, §8

SMILES | pest or weed control (Johnson grass (JG) [1]) [%] | pest or weed control at 2241.7 g/ha (Cotton (CT) [5]) [%] | pest or weed control (Crabgrass (CG) [6]) [%] | pest or weed control at 2241.7 g/ha (Barnyard grass (BG) [8]) [%] | pest or weed control at 2241.7 g/ha (Bean (BN) [11]) [%] | pest or weed control (Corn (CN) [13]) [%] | pest or weed control at 2241.7 g/ha (Turnip (TP) [14]) [%] | pest or weed control at 4483.4 g/ha (Johnson grass (JG) [1]) [%] | pest or weed control at 4483.4 g/ha (Cotton (CT) [5]) [%] | pest or weed control at 4483.4 g/ha (Crabgrass (CG) [6]) [%] | pest or weed control at 4483.4 g/ha (Barnyard grass (BG) [8]) [%] | pest or weed control at 4483.4 g/ha (Bean (BN) [11]) [%] | pest or weed control at 4483.4 g/ha (Corn (CN) [13]) [%] | pest or weed control at 4483.4 g/ha (Turnip (TP) [14]) [%] | also measured
C=CCSc1nnc(NC(=O)NC)s1 [Example 39, 1-Methyl-3-[5-Allythio-2-(1,3,4-Thiadiazolyl)] Urea] | 80 | 100 | 80 | 90 | 100 | 50 | 80 | – | – | – | – | – | – | – | pest or weed control at 2241.7 g/ha (Barnyard grass (BG) [2]; 2 lb/acre): 50%; pest or weed control at 2241.7 g/ha (Turnip (TP) [3]; 2 lb/acre): 70%; pest or weed control (Crabgrass (CG) [4]; 2 lb/acre): 60%; pest or weed control at 2241.7 g/ha (Cotton (CT) [7]; 2 lb/acre): 50%; pest or weed control at 2241.7 g/ha (Bean (BN) [9]; 2 lb/acre): 40%; pest or weed control at 2241.7 g/ha (Corn (CN) [10]): 10%; pest or weed control at 2241.7 g/ha (Johnson grass (JG) [12]; 2 lb/acre): 30%
CNC(=O)Nc1nnc(SC(C)C)s1 [Example 40, 1-Methyl-3-[5-Isopropylthio-2-(1,3,4-Thiadiazolyl)]Urea] | – | – | – | – | – | – | – | 70 | 100 | 90 | 50 | 100 | 40 | 100 | pest or weed control at 4483.4 g/ha (Barnyard grass (BG) [2]; 4 lb/acre): 40%; pest or weed control at 4483.4 g/ha (Turnip (TP) [3]; 4 lb/acre): 100%; pest or weed control at 4483.4 g/ha (Crabgrass (CG) [4]; 4 lb/acre): 50%; pest or weed control at 4483.4 g/ha (Cotton (CT) [7]; 4 lb/acre): 30%; pest or weed control at 4483.4 g/ha (Bean (BN) [9]; 4 lb/acre): 10%; pest or weed control at 4483.4 g/ha (Johnson grass (JG) [12]; 4 lb/acre): 30%
CNC(=O)Nc1nnc(SCC(C)C)s1 [Example 44] | 80 | 100 | 90 | 90 | 100 | 60 | 80 | – | – | – | – | – | – | – | pest or weed control at 1120.85 g/ha (Johnson grass (JG) [1]): 60%; pest or weed control at 1120.85 g/ha (Cotton (CT) [5]): 100%; pest or weed control at 1120.85 g/ha (Crabgrass (CG) [6]): 80%; pest or weed control at 1120.85 g/ha (Barnyard grass (BG) [8]): 80%; pest or weed control at 1120.85 g/ha (Bean (BN) [11]): 80%; pest or weed control at 1120.85 g/ha (Corn (CN) [13]): 60%; pest or weed control at 1120.85 g/ha (Turnip (TP) [14]): 40%
CCCCSc1nnc(NC(=O)NC)s1 [Example 45] | 90 | 100 | 90 | 80 | 100 | 60 | 70 | – | – | – | – | – | – | – | pest or weed control at 1120.85 g/ha (Johnson grass (JG) [1]): 60%; pest or weed control at 1120.85 g/ha (Cotton (CT) [5]): 100%; pest or weed control at 1120.85 g/ha (Crabgrass (CG) [6]): 90%; pest or weed control at 1120.85 g/ha (Barnyard grass (BG) [8]): 90%; pest or weed control at 1120.85 g/ha (Bean (BN) [11]): 90%; pest or weed control at 1120.85 g/ha (Corn (CN) [13]): 70%; pest or weed control at 1120.85 g/ha (Turnip (TP) [14]): 50%
CNC(=O)Nc1nnc(SCc2ccccc2)s1 [Example 46] | – | – | – | – | – | – | – | 70 | 100 | 70 | 70 | 90 | 30 | 100 | –
CCCCCCS(=O)(=O)c1nnc(NC(=O)NC)s1 [Example 58] | – | – | – | – | – | – | – | 30 | 50 | 50 | 20 | 70 | 20 | 80 | –
CCCCCSc1nnc(NC(=O)NC)s1 [Example 59] | – | – | – | – | – | – | – | 80 | 100 | 90 | 70 | 100 | 40 | 100 | –
